Results from patent publication US11530244B2, “Cyclic polypeptides for PCSK9 inhibition” (priority 2018, dated 2022).
Starred links: 1 amine or outer side, 2 acyl side, 3 side chain; linkers in the order of their positions; H or OH if unused. Positions of bridges follow the written chain, without caps; N, C: chain ends. Non-standard residues stand in square brackets, D forms with d. Residues, ends and D or L forms follow the SMILES beside them. Pro(3R,4S-CMe2) = CC1(C)[C@@H]2[C@@H](C(=O)O)NC[C@@H]21; Naphthalene(2,6-diCH2) = c1cc2cc(C[*:2])ccc2cc1C[*:1]; Trp(5-F) = N[C@@H](Cc1c[nH]c2ccc(F)cc12)C(=O)O; Trp(7-aza) = N[C@@H](Cc1c[nH]c2ncccc12)C(=O)O; Bip = N[C@@H](Cc1ccc(-c2ccccc2)cc1)C(=O)O; αMeW = C[C@](N)(Cc1c[nH]c2ccccc12)C(=O)O; X4 = O=C(CCSCc1cccc(CSCCN[*:1])c1)[*:2]; 1Nal = N[C@@H](Cc1cccc2ccccc12)C(=O)O; mXylylene = c1cc(C[*:1])cc(C[*:2])c1; NMeY = CN[C@@H](Cc1ccc(O)cc1)C(=O)O; X54 = c1cc2ccc(C[*:2])cc2cc1C[*:1]; X35 = COc1cc(C[*:1])cc(C[*:2])c1; hPhe = N[C@@H](CCc1ccccc1)C(=O)O; NMeD = CN[C@@H](CC(=O)O)C(=O)O; αMeK = C[C@](N)(CCCCN)C(=O)O; NMeV = CN[C@H](C(=O)O)C(C)C; αMeP = C[C@@]1(C(=O)O)CCCN1; Pip = O=C(O)[C@@H]1CCCCN1; Orn = NCCC[C@H](N)C(=O)O; Aze = O=C(O)[C@@H]1CCN1; Ac3c = NC1(C(=O)O)CC1; Aib = CC(C)(N)C(=O)O; Mpa = O=C(O)CCS; Sar = CNCC(=O)O

Molecular target: human PCSK9 / human LDLR EGFa domain interaction (Homo sapiens (Human), UniProt Q8NBP7)
Sequence (Q8NBP7 153-692): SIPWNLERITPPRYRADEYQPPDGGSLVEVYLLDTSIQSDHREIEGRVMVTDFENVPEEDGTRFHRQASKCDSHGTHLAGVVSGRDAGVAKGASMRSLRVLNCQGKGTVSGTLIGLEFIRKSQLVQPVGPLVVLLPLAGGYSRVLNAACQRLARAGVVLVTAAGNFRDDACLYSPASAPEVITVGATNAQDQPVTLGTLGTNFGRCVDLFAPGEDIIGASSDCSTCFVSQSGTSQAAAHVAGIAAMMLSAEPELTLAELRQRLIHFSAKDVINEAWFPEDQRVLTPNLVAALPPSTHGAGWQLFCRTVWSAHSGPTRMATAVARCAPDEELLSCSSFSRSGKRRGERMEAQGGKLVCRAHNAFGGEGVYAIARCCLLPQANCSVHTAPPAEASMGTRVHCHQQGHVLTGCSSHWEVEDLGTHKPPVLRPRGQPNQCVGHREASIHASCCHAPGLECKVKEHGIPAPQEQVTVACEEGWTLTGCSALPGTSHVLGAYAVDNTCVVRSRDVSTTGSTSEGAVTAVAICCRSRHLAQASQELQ
Sequence (Q8NBP7 31-152 partner): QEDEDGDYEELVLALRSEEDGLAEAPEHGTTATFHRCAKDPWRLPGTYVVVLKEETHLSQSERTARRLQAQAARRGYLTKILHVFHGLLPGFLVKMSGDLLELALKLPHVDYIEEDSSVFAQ
Test: TR-FRET assay of inhibition of the PCSK9-LDLR protein-protein interaction
Type: binding
Conditions: TR-FRET, 20 nM human PCSK9, 20 nM human LDLR EGFa domain, 2 hours room temperature; read-out: IC50
Experimental: A time-resolved fluorescence resonance energy (TR-FRET) assay was used to measure inhibition of the PCSK9-LDLR protein-protein interaction. Briefly, 20 nM avitag-biotinylated human PCSK9 was incubated with 20 nM his-tagged human LDLR EGFa domain in the presence of 5 nM LANCE Ulight Streptavidin (Perkin Elmer) and 5 nM europium-Anti-6×His (Perkin Elmer) for 2 hours covered at room temperature in buffer containing 50 mM HEPES, 150 mM NaCl, 5 mM CaCl2), 0.01% BSA and 0.01% Surfactant P20. Compounds were tested in dose-response and concentrations giving half-maximal inhibition calculated using a 4-parameter fit equation.

Row | SMILES | IC50 [µM]
1 | CC(=O)N[C@H]1CCC(=O)NCCC[C@@H](C(N)=O)NC(=O)[C@@H]2CCCN2C(=O)[C@H](Cc2ccc(O)cc2)NC(=O)[C@H](Cc2c[nH]cn2)NC(=O)[C@H](CC(=O)O)NC(=O)[C@H](Cc2c[nH]c3ccc(F)cc23)NC(=O)[C@H](Cc2c[nH]c3ccc(F)cc23)NC(=O)CNC(=O)[C@H](CCCCN)NC1=O [Compound 179] (Ac-EKG[Trp(5-F)][Trp(5-F)]DHYP[Orn]-NH2; lactam 1-10) | 1 to 12.1
2 | NCCCC[C@@H]1NC(=O)CCCCn2cc(nn2)CC[C@@H](C(N)=O)NC(=O)[C@@H]2CCCN2C(=O)[C@H](Cc2ccc(O)cc2)NC(=O)[C@H](Cc2c[nH]cn2)NC(=O)[C@H](CC(=O)O)NC(=O)[C@H](Cc2c[nH]c3ccc(F)cc23)NC(=O)[C@H](Cc2c[nH]c3ccc(F)cc23)NC(=O)CNC1=O [Compound 185] | 0.0001 to 0.1
3 | NCCCC[C@@H]1NC(=O)CCCn2cc(nn2)CC[C@@H](C(N)=O)NC(=O)[C@@H]2CCCN2C(=O)[C@H](Cc2ccc(O)cc2)NC(=O)[C@H](Cc2c[nH]cn2)NC(=O)[C@H](CC(=O)O)NC(=O)[C@H](Cc2c[nH]c3ccc(F)cc23)NC(=O)[C@H](Cc2c[nH]c3ccc(F)cc23)NC(=O)CNC1=O [Compound 186] | 0.1 to 1
4 | CN1CC(=O)N[C@H](C(N)=O)CSCc2cccc(c2)CSCCC(=O)N[C@@H](CCCCN)C(=O)NCC(=O)N[C@@H](Cc2c[nH]c3ccc(F)cc23)C(=O)N[C@@H](Cc2c[nH]c3ccc(F)cc23)C(=O)N[C@@H](CC(=O)O)C(=O)N[C@@H](Cc2cnc[nH]2)C(=O)N[C@@H](Cc2ccc(O)cc2)C1=O [Compound 194] ([Mpa]KG[Trp(5-F)][Trp(5-F)]DHY[Sar]C-NH2; linker 1-10 via mXylylene) | 21 to 50
5 | NCCCC[C@@H]1NC(=O)CCSCc2cccc(c2)CSC[C@@H](C(N)=O)NC(=O)C2(CC2)NC(=O)[C@H](Cc2ccc(O)cc2)NC(=O)[C@H](Cc2c[nH]cn2)NC(=O)[C@H](CC(=O)O)NC(=O)[C@H](Cc2c[nH]c3ccc(F)cc23)NC(=O)[C@H](Cc2c[nH]c3ccc(F)cc23)NC(=O)CNC1=O [Compound 195] ([Mpa]KG[Trp(5-F)][Trp(5-F)]DHY[Ac3c]C-NH2; linker 1-10 via mXylylene) | 21 to 50
6 | COc1cc2cc(c1)CSC[C@@H](C(N)=O)NC(=O)[C@@H]1CCCN1C(=O)[C@H](Cc1ccc(O)cc1)NC(=O)[C@H](Cc1c[nH]cn1)NC(=O)[C@H](CC(=O)O)NC(=O)[C@H](Cc1c[nH]c3ccc(F)cc13)NC(=O)[C@H](Cc1c[nH]c3ccc(F)cc13)NC(=O)CNC(=O)[C@H](CCCCN)NC(=O)CCSC2 [Compound 197] ([Mpa]KG[Trp(5-F)][Trp(5-F)]DHYPC-NH2; linker 1-10 via X35) | 21 to 50
7 | CC1(C)[C@@H]2[C@H]3C(=O)N[C@H](C(N)=O)CSCc4cccc(c4)CSCCC(=O)N[C@@H](CCCCN)C(=O)NCC(=O)N[C@@H](Cc4c[nH]c5ccc(F)cc45)C(=O)N[C@@H](Cc4c[nH]c5ccc(F)cc45)C(=O)N[C@@H](CC(=O)O)C(=O)N[C@@H](Cc4c[nH]cn4)C(=O)N[C@@H](Cc4ccc(O)cc4)C(=O)N3C[C@@H]21 [Compound 201] ([Mpa]KG[Trp(5-F)][Trp(5-F)]DHY[Pro(3R,4S-CMe2)]C-NH2; linker 1-10 via mXylylene) | 1 to 12.1
8 | NCCCC[C@@H]1NC(=O)CCSCc2ccc3cc(ccc3c2)CSC[C@@H](C(N)=O)NC(=O)[C@@H]2CCCN2C(=O)[C@H](Cc2ccc(O)cc2)NC(=O)[C@H](Cc2c[nH]cn2)NC(=O)[C@H](CC(=O)O)NC(=O)[C@H](Cc2c[nH]c3ccc(F)cc23)NC(=O)[C@H](Cc2c[nH]c3ccc(F)cc23)NC(=O)CNC1=O [Compound 203] ([Mpa]KG[Trp(5-F)][Trp(5-F)]DHYPC-NH2; linker 1-10 via Naphthalene(2,6-diCH2)) | 1 to 12.1
9 | NCCCC[C@@H]1NC(=O)CCSCc2ccc3ccc(cc3c2)CSC[C@@H](C(N)=O)NC(=O)[C@@H]2CCCN2C(=O)[C@H](Cc2ccc(O)cc2)NC(=O)[C@H](Cc2c[nH]cn2)NC(=O)[C@H](CC(=O)O)NC(=O)[C@H](Cc2c[nH]c3ccc(F)cc23)NC(=O)[C@H](Cc2c[nH]c3ccc(F)cc23)NC(=O)CNC1=O [Compound 206] ([Mpa]KG[Trp(5-F)][Trp(5-F)]DHYPC-NH2; linker 1-10 via X54) | 21 to 50
10 | NCCCC[C@@H]1NC(=O)CCSCc2cccc(c2)CSC[C@@H](C(N)=O)NC(=O)[C@@H]2CCN2C(=O)[C@H](Cc2ccc(O)cc2)NC(=O)[C@H](Cc2cnc[nH]2)NC(=O)[C@H](CC(=O)O)NC(=O)[C@H](Cc2c[nH]c3ccc(F)cc23)NC(=O)[C@H](Cc2c[nH]c3ccc(F)cc23)NC(=O)CNC1=O [Compound 207] ([Mpa]KG[Trp(5-F)][Trp(5-F)]DHY[Aze]C-NH2; linker 1-10 via mXylylene) | 21 to 50
11 | NCCCC[C@@H]1NC(=O)CCSCc2cccc(c2)CSC[C@@H](C(N)=O)NC(=O)[C@@H]2CCCCN2C(=O)[C@H](Cc2ccc(O)cc2)NC(=O)[C@H](Cc2cnc[nH]2)NC(=O)[C@H](CC(=O)O)NC(=O)[C@H](Cc2c[nH]c3ccc(F)cc23)NC(=O)[C@H](Cc2c[nH]c3ccc(F)cc23)NC(=O)CNC1=O [Compound 208] ([Mpa]KG[Trp(5-F)][Trp(5-F)]DHY[Pip]C-NH2; linker 1-10 via mXylylene) | 21 to 50
12 | NCCCC[C@@H]1NC(=O)CCSCc2cccc(c2)CSC[C@@H](C(N)=O)NC(=O)[C@@H]2CCCN2C(=O)[C@H](Cc2ccc(O)cc2)NC(=O)[C@H](Cc2c[nH]cn2)NC(=O)[C@H](CC(=O)O)NC(=O)[C@H](Cc2c[nH]c3ccc(F)cc23)NC(=O)[C@H](Cc2cccc3ccccc23)NC(=O)CNC1=O [Compound 209] ([Mpa]KG[1Nal][Trp(5-F)]DHYPC-NH2; linker 1-10 via mXylylene) | 1 to 12.1
13 | CC1(C)NC(=O)[C@H](Cc2ccc(O)cc2)NC(=O)[C@H](Cc2cnc[nH]2)NC(=O)[C@H](CC(=O)O)NC(=O)[C@H](Cc2c[nH]c3ccc(F)cc23)NC(=O)[C@H](Cc2c[nH]c3ccc(F)cc23)NC(=O)CNC(=O)[C@H](CCCCN)NC(=O)CCSCc2cccc(c2)CSC[C@@H](C(N)=O)NC1=O [Compound 218] ([Mpa]KG[Trp(5-F)][Trp(5-F)]DHY[Aib]C-NH2; linker 1-10 via mXylylene) | 0.1 to 1
14 | C[C@H]1NC(=O)[C@H](CCCCN)NC(=O)CCSCc2cccc(c2)CSCCNC(=O)[C@]2(C)CCCN2C(=O)[C@H](Cc2c[nH]c3ncccc23)NC(=O)[C@H](Cc2cnc[nH]2)NC(=O)[C@H](CC(=O)O)NC(=O)[C@H](Cc2c[nH]c3ccc(F)cc23)NC(=O)[C@H](Cc2c[nH]c3ccc(F)cc23)NC1=O [Compound 247] (cyclo(DH[Trp(7-aza)][αMeP][X4]K[dA][Trp(5-F)][Trp(5-F)])) | 0.1 to 1

The next lines start with the values.

Row | IC50 [µM] | SMILES
15 | 1 to 12.1 | NCCCC[C@@H]1NC(=O)CCSCc2cccc(c2)CSC[C@@H](C(N)=O)NC(=O)[C@@H]2CCCN2C(=O)[C@H](Cc2ccc(O)cc2)NC(=O)[C@H](Cc2c[nH]cn2)NC(=O)[C@H](CC(=O)O)NC(=O)[C@H](Cc2c[nH]c3ccc(F)cc23)NC(=O)[C@H](CCc2ccccc2)NC(=O)CNC1=O [Compound 211] ([Mpa]KG[hPhe][Trp(5-F)]DHYPC-NH2; linker 1-10 via mXylylene)
16 | 0.1 to 1 | C[C@@]1(Cc2c[nH]c3ccccc23)NC(=O)CNC(=O)[C@H](CCCCN)NC(=O)CCSCc2cccc(c2)CSC[C@@H](C(N)=O)NC(=O)[C@@H]2CCCN2C(=O)[C@H](Cc2ccc(O)cc2)NC(=O)[C@H](Cc2c[nH]cn2)NC(=O)[C@H](CC(=O)O)NC(=O)[C@H](Cc2c[nH]c3ccc(F)cc23)NC1=O [Compound 212] ([Mpa]KG[αMeW][Trp(5-F)]DHYPC-NH2; linker 1-10 via mXylylene)
17 | 1 to 12.1 | C[C@@]1(CCCCN)NC(=O)CCSCc2cccc(c2)CSC[C@@H](C(N)=O)NC(=O)[C@@H]2CCCN2C(=O)[C@H](Cc2ccc(O)cc2)NC(=O)[C@H](Cc2c[nH]cn2)NC(=O)[C@H](CC(=O)O)NC(=O)[C@H](Cc2c[nH]c3ccc(F)cc23)NC(=O)[C@H](Cc2c[nH]c3ccc(F)cc23)NC(=O)CNC1=O [Compound 214] ([Mpa][αMeK]G[Trp(5-F)][Trp(5-F)]DHYPC-NH2; linker 1-10 via mXylylene)
18 | 21 to 50 | CC(C)[C@H]1C(=O)N[C@H](C(N)=O)CSCc2cccc(c2)CSCCC(=O)N[C@@H](CCCCN)C(=O)NCC(=O)N[C@@H](Cc2c[nH]c3ccc(F)cc23)C(=O)N[C@@H](Cc2c[nH]c3ccc(F)cc23)C(=O)N[C@@H](CC(=O)O)C(=O)N[C@@H](Cc2cnc[nH]2)C(=O)N[C@@H](Cc2ccc(O)cc2)C(=O)N1C [Compound 220] ([Mpa]KG[Trp(5-F)][Trp(5-F)]DHY[NMeV]C-NH2; linker 1-10 via mXylylene)
19 | 21 to 50 | CN1CC(=O)N[C@@H](Cc2c[nH]c3ccccc23)C(=O)N[C@@H](Cc2c[nH]c3ccccc23)C(=O)N(C)[C@@H](CC(=O)O)C(=O)N[C@@H](Cc2cnc[nH]2)C(=O)N(C)[C@@H](Cc2ccc(O)cc2)C(=O)N2CCC[C@H]2C(=O)N[C@H](C(N)=O)CSCc2cccc(c2)CSCCC(=O)N[C@@H](CCCCN)C1=O [Compound 221] ([Mpa]K[Sar]WW[NMeD]H[NMeY]PC-NH2; linker 1-10 via mXylylene)
20 | 21 to 50 | CN1CC(=O)N[C@@H](Cc2c[nH]c3ccccc23)C(=O)N[C@@H](Cc2c[nH]c3ccccc23)C(=O)N(C)[C@@H](CC(=O)O)C(=O)N[C@@H](Cc2c[nH]cn2)C(=O)N[C@@H](Cc2ccc(O)cc2)C(=O)N2CCC[C@H]2C(=O)N[C@H](C(N)=O)CSCc2cccc(c2)CSCCC(=O)N[C@@H](CCCCN)C1=O [Compound 222] ([Mpa]K[Sar]WW[NMeD]HYPC-NH2; linker 1-10 via mXylylene)
21 | 1 to 12.1 | NCCCC[C@@H]1NC(=O)CCSCc2cccc(c2)CSC[C@@H](C(N)=O)NC(=O)[C@@H]2CCCN2C(=O)[C@H](Cc2ccc(-c3ccccc3)cc2)NC(=O)[C@H](Cc2c[nH]cn2)NC(=O)[C@H](CC(=O)O)NC(=O)[C@H](Cc2c[nH]c3ccc(F)cc23)NC(=O)[C@H](Cc2c[nH]c3ccc(F)cc23)NC(=O)CNC1=O [Compound 243] ([Mpa]KG[Trp(5-F)][Trp(5-F)]DH[Bip]PC-NH2; linker 1-10 via mXylylene)
